Experimental findings from ChEMBL document CHEMBL3813696, “Identification of Compounds with Efficacy against Malaria Parasites from Common North American Plants” (J Nat Prod, 2016) are described below.

Data set [1] concerns Plasmodium falciparum. Put plainly: Antimalarial activity against multidrug sensitive Plasmodium falciparum HB3 assessed as growth inhibition after 72 hrs by SYBR Green based fluorescence assay. It is filed as functional, organism-based.
A short description of data set [2]: Resistance index, ratio of IC50 for multidrug resistant Plasmodium falciparum NHP1337 to IC50 for multidrug sensitive Plasmodium falciparum HB3. It is filed as functional.
Data set [3] is described as follows: Selectivity ratio of IC50 for human HeLa cells to IC50 for multidrug sensitive Plasmodium falciparum HB3. The settings on record: for selectivity ratio: HeLa cells versus Plasmodium falciparum HB3, read-out: Ratio IC50; for Ratio IC50: hela. It is filed as ADME, cell-based.
In another data set the test system is HeLa. Put plainly: Cytotoxicity against human HeLa cells assessed as growth inhibition by sulforhodamine B assay. It is filed as cell-based.
The test system of data set [4] is Plasmodium falciparum. Description: Antimalarial activity against multidrug resistant Plasmodium falciparum NHP1337 assessed as growth inhibition after 72 hrs by SYBR Green based fluorescence assay. It is filed as functional, organism-based.
The nature of data set [5]: Selectivity ratio of IC50 for human HeLa cells to IC50 for multidrug resistant Plasmodium falciparum NHP1337. Format: ADME, cell-based. The settings on record: for selectivity ratio: HeLa cells versus Plasmodium falciparum NHP1337, read-out: Ratio IC50; for Ratio IC50: hela.
Setting [6] is: Plasmodium falciparum, HB3, 72 h.
The mark [7] stands for this setting: Plasmodium falciparum, NHP1337, 72 h.

In the case of `C=C(C)[C@@H]1CC[C@]2(CO)CC[C@]3(C)[C@H](CC[C@@H]4[C@@]5(C)CC[C@H](O)[C@@](C)(COC(=O)/C=C/c6ccc(O)cc6)[C@@H]5CC[C@]43C)[C@@H]12`, the IC50 – broadly, the concentration that gives 50% inhibition – in the data set on Plasmodium falciparum [1] (setting [6]) came out at 0.9 µM; in the data set with HeLa (Homo sapiens, HeLa), 28 µM; with Plasmodium falciparum [4] (setting [7]), 0.85 µM. Besides, the Ratio IC50 in data set [2] was 0.9. Moreover, the figures for the selectivity ratio in data set [3] and in data set [5] were 31 and 33, respectively.
For `C[C@@H]1O[C@@H](Oc2c(-c3ccc(O)cc3)oc3cc(O)cc(O)c3c2=O)[C@H](OC(=O)/C=C/c2ccc(O)cc2)[C@H](OC(=O)/C=C/c2ccc(O)cc2)[C@H]1O`, the IC50 amounted to 0.6 µM with Plasmodium falciparum [1] (setting [6]); 20.6 µM in the data set with HeLa (Homo sapiens, HeLa); 7 µM with Plasmodium falciparum [4] (setting [7]). Besides, in data set [2], the Ratio IC50 was determined as 12. Besides, the values for the selectivity ratio in data set [3] and in data set [5] were 34 and 2.9, respectively.
With `O=c1cc(-c2ccc(O)c(-c3c(O)cc(O)c4c(=O)cc(-c5ccc(O)cc5)oc34)c2)oc2cc(O)cc(O)c12` [AMENTOFLAVONE], the IC50 turned out to be 25 µM in the data set with Plasmodium falciparum [1] (setting [6]); 46.4 µM with HeLa (Homo sapiens, HeLa); 19 µM in the data set on Plasmodium falciparum [4] (setting [7]). The Ratio IC50 in data set [2] was 0.8. Further, the values for the selectivity ratio in data set [3] and in data set [5] were 1.9 and 2.4, respectively.
For `C[C@@H]1O[C@@H](Oc2c(-c3ccc(O)cc3)oc3cc(O)cc(O)c3c2=O)[C@H](OC(=O)/C=C\c2ccc(O)cc2)[C@H](OC(=O)/C=C\c2ccc(O)cc2)[C@H]1O`, the concentration for half-maximal inhibition (IC50) in the data set on Plasmodium falciparum [1] (setting [6]) was determined as 1.8 µM; in the data set with HeLa (Homo sapiens, HeLa), 16 µM; with Plasmodium falciparum [4] (setting [7]), 7 µM. In data set [2], the Ratio IC50 was 3.9. Besides, the selectivity ratio in data set [3] came out at 8.9; in data set [5], 2.3.
With `C=C(C)[C@@H]1CC[C@]2(CO)CC[C@]3(C)[C@H](CC[C@@H]4[C@@]5(C)CC[C@H](OC(=O)/C=C/c6ccc(O)cc6)[C@@](C)(CO)[C@@H]5CC[C@]43C)[C@@H]12` (stereo in doubt) [listing 1 of 2 here], in data set [2], the Ratio IC50 was 0.7.
As for `CC(=O)O[C@@H]1[C@@H](OC(=O)/C=C\c2ccc(O)cc2)[C@H](Oc2c(-c3ccc(O)cc3)oc3cc(O)cc(O)c3c2=O)O[C@H](COC(=O)/C=C\c2ccc(O)cc2)[C@H]1OC(C)=O`, the IC50 with Plasmodium falciparum [1] (setting [6]) was 2.1 µM; in the data set on HeLa (Homo sapiens, HeLa), less than 3 µM; in the data set on Plasmodium falciparum [4] (setting [7]) it was 3.8 µM. Also, in data set [2], the Ratio IC50 turned out to be 1.8. Also, the selectivity ratio in data set [3] is less than 1.4; in data set [5], less than 0.8.
In the case of `C=C(C)[C@@H]1CC[C@]2(CO)CC[C@]3(C)[C@H](CC[C@@H]4[C@@]5(C)CC[C@H](O)[C@@](C)(COC(=O)/C=C/c6ccc(O)c(OC)c6)[C@@H]5CC[C@]43C)[C@@H]12` (stereo in doubt) [listing 1 of 2 here], the Ratio IC50 in data set [2] stood at 0.3.
As to `COc1cc(O)c(-c2c(C)cc(O)c3c2C(=O)c2cccc(O)c2C3=O)c(O)c1C(C)=O` [KNIPHOLONE], the Ratio IC50 in data set [2] turned out to be 1. Further, the selectivity ratio in data set [3] came to 6.6; in data set [5] it was 6.5. Moreover, the half-inhibitory concentration (IC50) turned out to be 32.3 µM in the data set on HeLa (Homo sapiens, HeLa) and 5 µM in the data set with Plasmodium falciparum [4] (setting [7]).
As for `CC(=O)O[C@@H]1[C@@H](OC(=O)/C=C\c2ccc(O)cc2)[C@H](Oc2c(-c3ccc(O)cc3)oc3cc(O)cc(O)c3c2=O)O[C@H](COC(=O)/C=C/c2ccc(O)cc2)[C@H]1OC(C)=O`, the IC50 in the data set with Plasmodium falciparum [1] (setting [6]) is 0.9 µM; in the data set on HeLa (Homo sapiens, HeLa), less than 3 µM; with Plasmodium falciparum [4] (setting [7]), 5 µM. For the same molecule, in data set [2], the Ratio IC50 was 5.6. Further, the selectivity ratio in data set [3] is less than 3.3; in data set [5], less than 0.6.
Consider `C=C(C)[C@@H]1CC[C@]2(CO)CC[C@]3(C)[C@H](CC[C@@H]4[C@@]5(C)CC[C@H](O)[C@@](C)(COC(=O)/C=C\c6ccc(O)cc6)[C@@H]5CC[C@]43C)[C@@H]12`, for which the IC50 came to 0.8 µM in the data set with Plasmodium falciparum [1] (setting [6]); 7 µM with HeLa (Homo sapiens, HeLa); 1.53 µM in the data set on Plasmodium falciparum [4] (setting [7]). For the same molecule, the Ratio IC50 in data set [2] turned out to be 1.9. Moreover, the selectivity ratio in data set [3] was found to be 8.8; in data set [5] it was 4.6.
On to `C=C(C)[C@@H]1CC[C@]2(CO)CC[C@]3(C)[C@H](CC[C@@H]4[C@@]5(C)CC[C@H](OC(=O)/C=C/c6ccc(O)cc6)[C@@](C)(CO)[C@@H]5CC[C@]43C)[C@@H]12` (stereo in doubt; 6) [listing 1 of 2 here], for which the Ratio IC50 in data set [2] stood at 0.7.
For the molecule `C=C(C)[C@@H]1CC[C@]2(CO)CC[C@]3(C)[C@H](CC[C@@H]4[C@@]5(C)CC[C@H](OC(=O)/C=C/c6ccc(O)cc6)[C@@](C)(CO)[C@@H]5CC[C@]43C)[C@@H]12` (stereo in doubt; 6) [listing 2 of 2 here], the figures for the 50% inhibitory concentration (IC50) with Plasmodium falciparum [1] (setting [6]), in the data set with HeLa (hela) and with Plasmodium falciparum [4] were 1.9 µM, greater than 20 µM and 1.4 µM, respectively. Besides, the results for the “Ratio IC50” value in data set [3] and in data set [5] were greater than 11 and greater than 14, respectively.
Consider `C=C(C)[C@@H]1CC[C@]2(CO)CC[C@]3(C)[C@H](CC[C@@H]4[C@@]5(C)CC[C@H](O)[C@@](C)(COC(=O)/C=C/c6ccc(O)c(OC)c6)[C@@H]5CC[C@]43C)[C@@H]12` (stereo in doubt; 3) [listing 1 of 2 here], for which the Ratio IC50 in data set [2] was determined as 0.5.
As for `CC(=O)O[C@@H]1[C@@H](OC(=O)/C=C/c2ccc(O)cc2)[C@H](Oc2c(-c3ccc(O)cc3)oc3cc(O)cc(O)c3c2=O)O[C@H](COC(=O)/C=C/c2ccc(O)cc2)[C@H]1OC(C)=O`, the IC50 in the data set with Plasmodium falciparum [1] (setting [6]) was 0.6 µM; with HeLa (Homo sapiens, HeLa), less than 3 µM; in the data set with Plasmodium falciparum [4] (setting [7]), 2.1 µM. Further, the Ratio IC50 in data set [2] was found to be 3.5. Besides, the selectivity ratio is less than 5 in data set [3] and less than 1.4 in data set [5].
`C[C@@H]1O[C@@H](Oc2c(-c3ccc(O)cc3)oc3cc(O)cc(O)c3c2=O)[C@H](OC(=O)/C=C\c2ccc(O)cc2)[C@H](OC(=O)/C=C/c2ccc(O)cc2)[C@H]1O`: the concentration for half-maximal inhibition (IC50) in the data set with Plasmodium falciparum [1] (setting [6]) was 0.5 µM; in the data set with HeLa (Homo sapiens, HeLa), 9.3 µM; with Plasmodium falciparum [4] (setting [7]), 4.1 µM. Besides, the Ratio IC50 in data set [2] turned out to be 8.2. Further, the selectivity ratio in data set [3] came out at 19; in data set [5], 2.3.
As to `C=C(C)[C@@H]1CC[C@]2(CO)CC[C@]3(C)[C@H](CC[C@@H]4[C@@]5(C)CC[C@H](OC(=O)/C=C/c6ccc(O)c(OC)c6)[C@@](C)(CO)[C@@H]5CC[C@]43C)[C@@H]12`, the IC50 in the data set with Plasmodium falciparum [1] (setting [6]) is 3 µM; in the data set with HeLa (Homo sapiens, HeLa), greater than 20 µM; in the data set with Plasmodium falciparum [4] (setting [7]), 2.3 µM. Further, the Ratio IC50 in data set [2] came out at 0.8. Moreover, the selectivity ratio in data set [3] is greater than 6.7; in data set [5] it was greater than 8.7.
Turning to `C=C(C)[C@@H]1CC[C@]2(CO)CC[C@]3(C)[C@H](CC[C@@H]4[C@@]5(C)CC[C@H](O)[C@@](C)(CO)[C@@H]5CC[C@]43C)[C@@H]12`, the IC50 with Plasmodium falciparum [1] (setting [6]) was 3.4 µM; in the data set on HeLa (Homo sapiens, HeLa), greater than 20 µM; in the data set on Plasmodium falciparum [4] (setting [7]), 5.2 µM. Besides, the Ratio IC50 in data set [2] amounted to 1.5. For the same molecule, the selectivity ratio in data set [3] was greater than 5.9; in data set [5] it was greater than 3.8.
`C[C@@H]1O[C@@H](Oc2c(-c3ccc(O)cc3)oc3cc(O)cc(O)c3c2=O)[C@H](OC(=O)/C=C/c2ccc(O)cc2)[C@H](OC(=O)/C=C\c2ccc(O)cc2)[C@H]1O`: the IC50 with Plasmodium falciparum [1] (setting [6]) was found to be 2 µM; in the data set on HeLa (Homo sapiens, HeLa), 11.9 µM; in the data set on Plasmodium falciparum [4] (setting [7]), 4 µM. Further, the Ratio IC50 in data set [2] worked out at 2. The results for the selectivity ratio in data set [3] and in data set [5] were 6 and 3, respectively.
Turning to `CC(=O)O[C@@H]1[C@@H](OC(=O)/C=C/c2ccc(O)cc2)[C@H](Oc2c(-c3ccc(O)cc3)oc3cc(O)cc(O)c3c2=O)O[C@H](COC(=O)/C=C\c2ccc(O)cc2)[C@H]1OC(C)=O`, the IC50 was 0.8 µM in the data set with Plasmodium falciparum [1] (setting [6]); less than 3 µM with HeLa (Homo sapiens, HeLa); 4 µM in the data set with Plasmodium falciparum [4] (setting [7]). Also, the Ratio IC50 in data set [2] was 5. Further, the results for the selectivity ratio in data set [3] and in data set [5] were less than 3.8 and less than 0.8, respectively.
Turning to `C=C(C)[C@@H]1CC[C@]2(CO)CC[C@]3(C)[C@H](CC[C@@H]4[C@@]5(C)CC[C@H](OC(=O)/C=C/c6ccc(O)cc6)[C@@](C)(CO)[C@@H]5CC[C@]43C)[C@@H]12` (stereo in doubt) [listing 2 of 2 here], the IC50 in the data set with Plasmodium falciparum [1] was 2.3 µM; in the data set on HeLa (Homo sapiens, HeLa) it was 22 µM; in the data set with Plasmodium falciparum [4] (setting [7]), 1.6 µM. The selectivity ratio in data set [3] amounted to 9.6; in data set [5] it was 14.
In the same order, the values of `C=C(C)[C@@H]1CC[C@]2(CO)CC[C@]3(C)[C@H](CC[C@@H]4[C@@]5(C)CC[C@H](O)[C@@](C)(COC(=O)/C=C/c6ccc(O)c(OC)c6)[C@@H]5CC[C@]43C)[C@@H]12` (stereo in doubt; 3) [listing 2 of 2 here] are 0.5 µM, greater than 20 µM, 0.27 µM, greater than 40 and greater than 74.
`C=C(C)[C@@H]1CC[C@]2(CO)CC[C@]3(C)[C@H](CC[C@@H]4[C@@]5(C)CC[C@H](O)[C@@](C)(COC(=O)/C=C/c6ccc(O)c(OC)c6)[C@@H]5CC[C@]43C)[C@@H]12` (stereo in doubt) [listing 2 of 2 here]: the values for the IC50 in the data set with Plasmodium falciparum [1] (setting [6]), in the data set with HeLa (hela) and in the data set with Plasmodium falciparum [4] were 1 µM, 20 µM and 0.31 µM, respectively. In addition, the “Ratio IC50” value in data set [3] was 20; in data set [5], 65.
